The data set deals with gestating cows. As to the kind of experiment: Clinical safety study (abortion, fetal toxicity) in gestating ruminants (Example 3). The following applies: two injections at interval of 48 hours, 25 mcg/kg. The data set is classed as in vivo. Here is the method:
This study aims to show the absence of risks such as abortions and fetus toxicity during the use of cabergoline in gestating ruminants even in the case of an overdose of cabergoline based veterinary compositions according to the regimen prescribed in the present invention. Groups of cows at different gestating stages receive the treatment at different doses: • 3 months of gestation (6 animals), dose of 15 mcg/kg—2 injections at an interval of 48 hours • 7 to 8 months of gestation: (5 animals), dose of 15 mcg/kg—2 injections at an interval of 48 hours • 6.5 to 7.5 months of gestation: (11 animals), dose of 25 mcg/kg—2 injections an interval of 48 hours
The formulation described in the Example 1, containing 500 mcg/ml of cabergoline in injectable solution is used in this study.
Regular clinical exams were conducted during a period lasting from 7 days before the treatment to 15 days after the treatment:
Daily general inspection and abortions,
Clinical exam of the genital tract including transrectal palpation and an ultrasound, in order to evaluate the suffering and fetal viability.
Blood samplings are conducted one day before the treatment and 15 days after the treatment to follow the plasmatic concentrations of different hormones and proteins indicating the health of the placenta and fetus, such as progesterone, estrone sulfate and the PAG (Pregnancy Associated Glycoprotein). […]

For the molecule `C=CCN1C[C@H](C(=O)N(CCCN(C)C)C(=O)NCC)C[C@@H]2c3cccc4[nH]cc(c34)C[C@H]21` [cabergoline, N-[3-(Dimethylamino)propyl]-N-[(ethylamino)carbonyl]-6-(2-propenyl)-8 g-ergoline-8-carboxamide], the abortions result is listed as “do not provoke any abortions”; the “harmful effect on the gestation, viability and health of the new born calves” value is given as “neither do they have any harmful effect”.
